Reference: patent US11001570B2, “6-amino-quinolinone compounds and derivatives as BCL6 inhibitors” (Boehringer Ingelheim International GmbH, priority 2016, dated 2021)

These molecules were tested against T1, BCL6::BCOR (Homo sapiens, UniProt P41182, C67R/C84N/C8Q) (assay: BCL6::BCOR ULight TR-FRET assay).
T1 construct: BCL6 (amino acids 5 to 129, with the following changes to the natural protein); made in house; host or cells: E. coli
Format: binding
Outline: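 Biotin-Avi BCL6 (aa 5–129, C8Q/C67R/C84N; E. coli), 1 nM, preincubated 30 min RT with compound (11-point fivefold series, top 100 μM) in HEPES pH 7.3 buffer; then 100 nM ULight-BCOR peptide plus 0.75 nM streptavidin-Eu added, 240 min RT. TR-FRET read, normalized to DMSO controls with/without BCL6.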
An IC50 of 2 nM was found for `CNC(=O)COc1cc2cc(Nc3nc(N4CCC[C@H](C(=O)O)C4)ncc3Cl)cc(OC)c2n(C)c1=O` [Compound I-96] in this work. An IC50 of 10 nM was found for `Cn1c(=O)c(OCC(=O)O)cc2cc(Nc3nc(N4CCc5[nH]nnc5C4)ncc3Cl)ccc21` [Compound I-116] in this work. An IC50 of 4 nM was found for `CNC(=O)COc1cc2cc(Nc3nc(N4CCC(CC(=O)O)CC4)ncc3Cl)ccc2n(C)c1=O` [Compound I-93] in this work. An IC50 of 8 nM was found for `CNC(=O)COc1cc2cc(Nc3nc(N4CCC(F)(F)CC4)ncc3Cl)ccc2n(CC2CC2)c1=O` [Compound I-89] in this work. An IC50 of 5 nM was found for `CNC(=O)COc1cc2cc(Nc3nc(N4CCC(C(=O)NCCOCCOCCN)CC4)ncc3Cl)ccc2n(C)c1=O` [Compound I-147] in this work. An IC50 of 6 nM was found for `CNC(=O)COc1cc2cc(Nc3nc(N4CCC(C(=O)NCCCCCCN)CC4)ncc3Cl)ccc2n(C)c1=O` [Compound I-146] in this work. An IC50 of 22 nM was found for `CNC(=O)COc1cc2cc(Nc3cc(N4C[C@H](C)C[C@H](C)C4)ncc3Cl)ccc2n(C)c1=O` [Compound I-178, 2-{[6-({5-chloro-2-[cis-3,5-dimethylpiperidin-1-yl]pyridin-4-yl}amino)-1-methyl-2-oxo-1,2-dihydroquinolin-3-yl]oxy}-N-methylacetamide] in this work. An IC50 of 4 nM was found for `CNC(=O)COc1cc2cc(Nc3nc(N4CCC(F)CC4)ncc3Cl)cc(OC)c2n(C)c1=O` [Compound I-98] in this work. An IC50 of 6 nM was found for `CNC(=O)COc1cc2cc(Nc3nc(N4CCC(C(=O)N(C)CCOCCN)CC4)ncc3Cl)ccc2n(C)c1=O` [Compound I-143] in this work. An IC50 of 108 nM was found for `Cn1c(=O)c(OCC(=O)O)cc2cc(Nc3nc(N4CCC5(CCCCC5)CC4)ncc3Cl)ccc21` [Compound I-111] in this work. An IC50 of 6 nM was found for `CNC(=O)COc1cc2cc(Nc3nc(N4CCC[C@@H](C(=O)N(C)C)C4)ncc3Cl)ccc2n(C)c1=O` [Compound I-168, (3R)-1-[5-chloro-4-({1-methyl-3-[(methylcarbamoyl)methoxy]-2-oxo-1,2-dihydroquinolin-6-yl}amino)pyrimidin-2-yl]-N,N-dimethylpiperidine-3-carboxamide] in this work. An IC50 of 7 nM was found for `C#CC1CCN(c2ncc(Cl)c(Nc3ccc4c(c3)cc(OCC(=O)O)c(=O)n4C)n2)CC1` [Compound I-113] in this work. An IC50 of 7 nM was found for `CNC(=O)COc1cc2cc(Nc3nc(N4CCC(N(C)C)CC4)ncc3Cl)ccc2n(C)c1=O` [Compound I-45] in this work. An IC50 of 10 nM was found for `CNC(=O)COc1cc2cc(Nc3nc(N4CCC(F)CC4)ncc3Cl)ccc2n(C(C)C)c1=O` [Compound I-84] in this work. An IC50 of 19 nM was found for `CNC(=O)COc1cc2cc(Nc3nc(N4CCC(C(=O)N(C)C)CC4)ncc3Cl)c(F)cc2n(C)c1=O` [Compound I-156] in this work. An IC50 of 6 nM was found for `CNC(=O)COc1cc2cc(Nc3nc(N4CCC[C@@H](C(=O)N5CCN(C)CC5)C4)ncc3Cl)ccc2n(C)c1=O` [Compound I-169] in this work. An IC50 of 7 nM was found for `CCN(CC)CCCCC1CCCN(c2ncc(Cl)c(Nc3ccc4c(c3)cc(OCC(=O)NC)c(=O)n4C)n2)C1` (stereo not shown) [Compound I-126] in this work. An IC50 of 5 nM was found for `CNC(=O)COc1cc2cc(Nc3nc(N4CC(C)C(C(=O)N(C)C)C(C)C4)ncc3Cl)ccc2n(C)c1=O` (stereo not shown) [Compound I-13, 1-[5-chloro-4-({1-methyl-3-[(methylcarbamoyl)-methoxy]-2-oxo-1,2-dihydroquinolin-6-yl}amino)pyrimidin-2-yl]-N,N,3,5-tetramethylpiperidine-4-carboxamide] in this work. An IC50 of 9 nM was found for `COC(=O)COc1cc2cc(Nc3nc(N4CCC(F)CC4)ncc3Cl)ccc2n(C)c1=O` [Compound I-2, methyl 2-[(6-{[5-chloro-2-(4-fluoropiperidin-1-yl)pyrimidin-4-yl]amino}-1-methyl-2-oxo-1,2-dihydro-quinolin-3-yl)oxy]-acetate] in this work. An IC50 of 16 nM was found for `Cn1c(=O)c(OCC(=O)O)cc2cc(Nc3nc(N4CCCC(F)(F)CC4)ncc3Cl)ccc21` [Compound I-118] in this work. An IC50 of 62 nM was found for `CNC(=O)COc1cc2cc(Nc3nc(N4CCC(C(F)(F)F)CC4)ncc3Cl)ccc2n(C)c1=O` [Compound I-33] in this work. An IC50 of 17 nM was found for `COCCN1CCN(c2ncc(Cl)c(Nc3ccc4c(c3)cc(OCC(=O)O)c(=O)n4C)n2)CC1C` (stereo not shown) [Compound I-110] in this work. An IC50 of 5 nM was found for `CNC(=O)COc1cc2cc(Nc3nc(N4CCCC(F)CC4)ncc3Cl)ccc2n(C)c1=O` (stereo not shown) [Compound I-55] in this work. An IC50 of 11 nM was found for `Cc1cc(C)n(-c2ncc(Cl)c(Nc3ccc4c(c3)cc(OCC(=O)O)c(=O)n4C)n2)n1` [Compound I-153, 2-[(6-{[5-chloro-2-(3,5-dimethyl-1H-pyrazol-1-yl)pyrimidin-4-yl]amino}-1-methyl-2-oxo-1,2-dihydroquinolin-3-yl)oxy]acetic acid] in this work. An IC50 of 5 nM was found for `CNC(=O)COc1cc2cc(Nc3nc(N4CCC(C(=O)N(C)C)CC4)ncc3Cl)ccc2n(C)c1=O` [Compound I-157] in this work. An IC50 of 4 nM was found for `CNC(=O)COc1cc2cc(Nc3nc(N4CCC[C@@H](C(=O)O)C4)ncc3Cl)ccc2n(C)c1=O` [Compound I-167, (3R)-1-[5-chloro-4-({1-methyl-3-[(methylcarbamoyl)methoxy]-2-oxo-1,2-dihydroquinolin-6-yl}-amino)pyrimidin-2-yl]piperidine-3-carboxylic acid] in this work. An IC50 of 39 nM was found for `CN(C)C(=O)COc1cc2cc(Nc3nc(N4CCC(C(=O)N(C)C)CC4)ncc3Cl)ccc2n(C)c1=O` [Compound I-171] in this work. An IC50 of 5 nM was found for `CNC(=O)COc1cc2cc(Nc3nc(N4C[C@H]5CC[C@@H](C4)O5)ncc3Cl)ccc2n(C)c1=O` [Compound I-7, 2-({6-[(5-chloro-2-{8-oxa-3-azabicyclo[3.2.1]octan-3-yl}pyrimidin-4-yl)amino]-1-methyl-2-oxo-1,2-dihydroquinolin-3-yl}oxy)-N-methylacetamide] in this work. An IC50 of 11 nM was found for `Cn1c(=O)c(OCC(=O)O)cc2cc(Nc3nc(N4CCC(N5CCOCC5)C4)ncc3Cl)ccc21` (stereo not shown) [Compound I-120] in this work. An IC50 of 16 nM was found for `CNC(=O)COc1cc2cc(Nc3nc(-n4nc(C(=O)N5CCN(C)CC5)cc4C)ncc3Cl)ccc2n(C)c1=O` [Compound I-166, 2-{[6-({5-chloro-2-[5-methyl-3-(4-methylpiperazine-1-carbonyl)-1H-pyrazol-1-yl]pyrimidin-4-yl}amino)-1-methyl-2-oxo-1,2-dihydroquinolin-3-yl]oxy}-N-methylacetamide] in this work. An IC50 of 10 nM was found for `COC(=O)COc1cc2cc(Nc3nc(N4C[C@H](C)C[C@H](C)C4)ncc3Cl)ccc2n(C)c1=O` [Compound I-1, methyl 2-{[6-({5-chloro-2-[cis-3,5-dimethylpiperidin-1-yl]pyrimidin-4-yl}amino)-1-methyl-2-oxo-1,2-dihydroquinolin-3-yl]oxy}acetate] in this work. An IC50 of 10 nM was found for `CCOC(=O)CC1CCCN(c2ncc(Cl)c(Nc3ccc4c(c3)cc(OCC(=O)O)c(=O)n4C)n2)C1` (stereo not shown) [Compound I-104] in this work. An IC50 of 11 nM was found for `CNC(=O)COc1cc2cc(Nc3nc(N4CCC(N5CC6CCC5CC6)CC4)ncc3Cl)ccc2n(C)c1=O` [Compound I-59] in this work. An IC50 of 12 nM was found for `CNC(=O)COc1cc2cc(Nc3nc(N4C[C@H](C)C[C@H](C)C4)ncc3Cl)ccc2n(C(C)C)c1=O` [Compound I-83] in this work. An IC50 of 5 nM was found for `CCn1c(=O)c(OCC(=O)NC)cc2cc(Nc3nc(N4C[C@H](C)C[C@H](C)C4)ncc3Cl)ccc21` [Compound I-74] in this work. An IC50 of 11 nM was found for `C[C@H]1CN(c2ncc(Cl)c(Nc3ccc4c(c3)cc(OCC(=O)O)c(=O)n4C)n2)CCO1` [Compound I-117] in this work. An IC50 of 10 nM was found for `Cn1c(=O)c(OCC(=O)O)cc2cc(Nc3nc(N4CCC5(CC4)OCCCO5)ncc3Cl)ccc21` [Compound I-103] in this work. An IC50 of 22 nM was found for `CNC(=O)COc1cc2cc(Nc3nc(N4CCC(C(=O)NCCOCCN)CC4)ncc3Cl)ccc2n(C)c1=O` [Compound I-144] in this work. An IC50 of 6 nM was found for `CNC(=O)COc1cc2cc(Nc3nc(N4CCC(F)(F)CC4)ncc3F)ccc2n(C)c1=O` [Compound I-27] in this work. An IC50 of 85 nM was found for `CNC(=O)COc1cc2cc(Nc3nc(N4C[C@H](C)C[C@H](C)C4)ncc3Cl)ccc2n(CCN(C)C)c1=O` [Compound I-159] in this work. An IC50 of 12 nM was found for `CNC(=O)COc1cc2cc(Nc3nc(-n4nc(C)cc4C)ncc3Cl)ccc2n(C)c1=O` [Compound I-149, 2-[(6-{[5-chloro-2-(3,5-dimethyl-1H-pyrazol-1-yl)pyrimidin-4-yl]amino}-1-methyl-2-oxo-1,2-dihydroquinolin-3-yl)oxy]-N-methylacetamide] in this work. An IC50 of 9 nM was found for `CNC(=O)COc1cc2cc(Nc3nc(N4CCCC(C)(C)C4)ncc3Cl)ccc2n(C)c1=O` [Compound I-71] in this work. An IC50 of 41 nM was found for `CNC(=O)COc1cc2cc(Nc3nc(N4C[C@H](CO)N[C@H](C)C4)ncc3Cl)ccc2n(C)c1=O` [Compound I-9, 2-{[6-({5-chloro-2-[(3R,5R)-3-(hydroxymethyl)-5-methylpiperazin-1-yl]pyrimidin-4-yl}amino)-1-methyl-2-oxo-1,2-dihydroquinolin-3-yl]oxy}-N-methylacetamide] in this work. An IC50 of 2 nM was found for `CNC(=O)COc1cc2cc(Nc3nc(N4CCC(C(=O)O)CC4)ncc3Cl)cc(OC)c2n(C)c1=O` [Compound I-94] in this work. An IC50 of 7 nM was found for `CNC(=O)COc1cc2cc(Nc3nc(N4CCN(C(=O)CN(C)C)CC4)ncc3Cl)ccc2n(C)c1=O` [Compound I-18] in this work. An IC50 of 6 nM was found for `CNC(=O)COc1cc2cc(Nc3nc(N4C[C@@H](C)O[C@@H](C)C4)ncc3Cl)ccc2n(C)c1=O` [Compound I-53] in this work. An IC50 of 8 nM was found for `CNC(=O)COc1cc2cc(Nc3nc(N4CCN(CC(=O)O)CC4)ncc3Cl)ccc2n(C)c1=O` [Compound I-63] in this work. An IC50 of 5 nM was found for `CNC(=O)COc1cc2cc(Nc3nc(N4CCOCC4)ncc3Cl)ccc2n(C)c1=O` [Compound I-54] in this work. An IC50 of 4 nM was found for `CCCn1c(=O)c(OCC(=O)NC)cc2cc(Nc3nc(N4CCC(C(=O)O)CC4)ncc3Cl)ccc21` [Compound I-78] in this work. An IC50 of 23 nM was found for `CNC(=O)COc1cc2cc(Nc3nc(N4CCCC(C)(C#N)C4)ncc3Cl)ccc2n(C)c1=O` (stereo not shown) [Compound I-69] in this work. An IC50 of 269 nM was found for `C[C@@H]1C[C@H](C)CN(c2ncc(Cl)c(Nc3ccc4c(c3)cc(OCC(=O)NCC(O)C(F)(F)F)c(=O)n4C)n2)C1` (stereo partly shown) [Compound I-136] in this work. An IC50 of 7 nM was found for `CNC(=O)COc1cc2cc(Nc3nc(N4CCc5cnn(C)c5C4)ncc3Cl)ccc2n(C)c1=O` [Compound I-68] in this work.
